Results as given in paper PMC6424957 (Scientific Reports, 2019).

What was measured:
[1] = Oxygen radical absorbance capacity assay (ORAC-FL); details: for ORAC TE value: ORAC-FL, AAPH, fluorescein, 37 °C, pH 7.4, Trolox taken as 1; for radical-scavenging activity, ORAC-FL method: result in words
Protocol: The ability of the conjugates to reduce the amount of peroxyl radicals as another characteristic of the antioxidant activity of the compounds was determined using the oxygen radical absorbance capacity by fluorescence (ORAC-FL) method using fluorescein (FL) as a fluorescent probe. The method is based on measuring the decrease in the intensity of fluorescence with time, which characterizes the degree of decay of the fluorescent probe under the influence of peroxyl radicals. In the presence of antioxidants, the degree of decay of the fluorescent probe decreases and, accordingly, the fluorescence time increases.
The ability of compounds to scavenge peroxyl radicals was characterized by the value of the Trolox equivalent (TE, μmol of Trolox per μmol of the tested compound), which is equal to the ratio of the Trolox concentration to the tested compound concentration having the same fluorescence intensity. Peroxyl radical scavenging capacity of Trolox is taken as one (1)[67],[68].
2,2′-Azobis-(amidinopropane) dihydrochloride (AAPH), (±)-6-hydroxy-2,5,7,8-tetramethylchromane-2-carboxylic acid (Trolox) and fluorescein (FL) were purchased from Sigma-Aldrich. The reaction was carried out at 37 °C in 75 mM K,Na phosphate buffer (pH 7.4), and the final reaction mixture was 200 µL. The tested compounds and Trolox standard were dissolved in DMSO to 10 mM and further diluted in 75 mM K,Na phosphate buffer (pH 7.4). […] The blank was composed of 20 µL 75 mM K,Na phosphate buffer (pH 7.4) containing 2% (v/v) DMSO, 120 µL FL and 60 µL AAPH, and was added in each assay. Antioxidant (the test compound or Trolox, 20 µL) and FL (120 µL, final concentration: 70 nM) solutions were placed in a black 96-well microplate and were pre-incubated for 15 min at 37 °C. AAPH solution (60 µL, final concentration 12 mM) was then added rapidly using a multichannel pipette. The fluorescence was recorded every minute for 100 min. A Trolox standard curve was also obtained in each assay. All reactions were carried out in triplicate and at least three different assays were performed for each sample.
Antioxidant curves (fluorescence vs. time) were first normalized to the curve of the blank (without antioxidant) corresponding to the same assay, and the area under the fluorescence decay curve (AUC) was calculated. The net AUC corresponding to a sample was calculated by subtracting the AUC corresponding to the blank. Regression equations were calculated by plotting the net AUC against the antioxidant concentration. The ORAC value was obtained by dividing the slope of the latter curve by the slope of the Trolox curve obtained in the same assay. […] Data were expressed as means ± SEM.

[2] = ABTS radical cation scavenging assay; details: for ABTS·+ scavenging activity, TEAC value: Trolox equivalent antioxidant capacity, ratio of slopes compound/Trolox; for ABTS·+ scavenging activity, TEAC value / IC50: 1 h incubation; for IC50: concentration reducing ABTS·+ by 50%; for radical-scavenging activity, ABTS method: result in words
Protocol: This assay is based on the production of a stable dark green ABTS cation-radical (ABTS^·+) by incubating ABTS ([2,2′-azino-bis(3-eth-ylbenzothiazoline-6-sulfonic acid diammonium salt)) with potassium persulfate. […] The ABTS radical-scavenging activity of the compounds was measured according to an established method[66] with some modifications, at 30 °С in the dark; incubation time was 1 hour. […] The results were expressed as TEAC values (Trolox equivalent antioxidant capacity) calculated by dividing the slope of ABTS^·+ concentration decrease versus the antioxidant concentration by the slope of the Trolox plot.
Radical scavenging activity of the compounds was assessed using an ABTS radical decolorization assay[66] with some minor modifications. ABTS (2,2′-azino-bis-(3-ethylbenzothiazoline-6-sulfonic acid) diammonium salt) was purchased from TCI (Tokyo, Japan); potassium persulfate (di-potassium peroxodisulfate) and Trolox (6-hydroxy-2,5,7,8-tetramethychroman-2-carboxylic acid were obtained from Sigma-Aldrich Chemical Co. (St. Louis, MO, USA). Ethanol was HPLC grade. Aqueous solutions were prepared using deionized water.
Trolox was used as the antioxidant standard. A 5 mM solution of Trolox was prepared in DMSO for use as stock. Fresh working solutions of known concentrations (1–100 μM) were prepared on the day of experiments and used for calibration and as positive controls for ABTS radical cation (ABTS^•+) scavenging activity. ABTS was dissolved in deionized water to a 7 mM concentration. […] Fresh working ABTS^•+ solution was prepared for each assay.
The radical scavenging capacity of the compounds was analyzed by mixing 10 μl of compound with 240 μl of ABTS^•+ working solution. […] Ethanol blanks were run in each assay. Values were obtained from three replicates of each sample and three independent experiments.
Antioxidant capacity as a Trolox equivalent (TEAC values) was determined as the ratio between the slopes obtained from the linear correlation for concentrations of test compounds and Trolox with absorbance of ABTS radical.

[3] = test system: isolated rat liver mitochondria; test: Inhibition of iron-induced lipid peroxidation (TBARs); details: read-out: IC50 of Fe3+-induced LP, LP induced by 0.5 mM Fe3+, mean ± SEM, n ≥ 3
[4] = biological target: T1, porcine liver carboxylesterase (CaE) (Sus scrofa, UniProt Q29550); test: CaE inhibition (4-nitrophenyl acetate hydrolysis); type: biochemical; details: for % inhibition of CaE at 20 µM / inhibition at 20 µM: mean ± SEM, n ≥ 3, n.a. = not active at 20 µM; for IC50: read-out: IC50 CaE
T1 sequence (Q29550 19-566): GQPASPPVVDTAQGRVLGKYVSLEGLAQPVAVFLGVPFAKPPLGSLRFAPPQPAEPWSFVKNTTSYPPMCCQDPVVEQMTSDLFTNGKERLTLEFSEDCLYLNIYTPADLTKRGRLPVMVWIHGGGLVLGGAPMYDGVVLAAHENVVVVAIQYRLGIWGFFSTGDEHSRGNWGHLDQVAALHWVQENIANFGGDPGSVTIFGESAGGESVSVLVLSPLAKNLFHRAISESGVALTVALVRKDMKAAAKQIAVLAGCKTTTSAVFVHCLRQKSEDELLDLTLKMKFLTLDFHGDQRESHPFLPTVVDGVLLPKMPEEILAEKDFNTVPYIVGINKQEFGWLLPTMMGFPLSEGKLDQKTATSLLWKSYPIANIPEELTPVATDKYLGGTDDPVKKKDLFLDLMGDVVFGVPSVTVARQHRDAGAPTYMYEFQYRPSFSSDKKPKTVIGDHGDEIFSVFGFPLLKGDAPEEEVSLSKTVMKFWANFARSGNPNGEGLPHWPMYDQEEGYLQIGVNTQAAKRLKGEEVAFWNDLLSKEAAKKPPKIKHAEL
Protocol: Acetylcholinesterase (AChE, EC 3.1.1.7, from human erythrocyte and E. electricus (EeAChE) (type VI-S), butyrylcholinesterase (BChE, EC 3.1.1.8, from equine serum), carboxylesterase (CaE, EC 3.1.1.1, from porcine liver), acetylthiocholine iodide (ATCh), butylthiocholine iodide (BTCh), 5,5′-dithiobis-(2-nitrobenzoic acid) (DTNB), 4-nitrophenyl acetate (4-NPA), were purchased from Sigma-Aldrich (Germany).
AChE and BChE activities were measured by the Ellman method as described earlier. The assay solution consisted of 0.1 M K/Na phosphate buffer pH 7.5, 25 °C with the addition of 0.33 mM DTNB, 0.02 unit/mL of AChE or BChE, and 1 mM of substrate (ATCh or BTCh, respectively). The assays were carried out with a reagent blank containing all components except AChE or BChE to account for non-enzymatic hydrolysis of substrate. In addition, an enzyme blank was included that contained all components except substrate to account for non-substrate sulfhydryl groups. […] The assay solution consisted of 0.1 M K/Na phosphate buffer pH 8.0, 25 °C with the addition of 1 mM 4-nitrophenyl acetate and 0.02 unit/mL of CaE. Assays were carried out with a blank containing all components except CaE.
The test compounds were dissolved in DMSO; the incubation mixture contained 2% (v/v) of the solvent. […] The test compounds were added to the assay solution and preincubated at 25°C with the enzymes for 5 min followed by the addition of substrate. A parallel control was made for the assay solution with no inhibitor. […] Each experiment was performed three times. The results were expressed as the mean ± SEM. The reaction rates in the presence and absence of inhibitor were compared, and the percent of residual enzyme activity due to the presence of test compounds was calculated.

| Structure (SMILES) | ORAC TE value [1] [µmol Trolox/ µmol comp.] | ABTS·+ scavenging activity, TEAC value [2] | IC50 [2] [µM] | IC50 [3] [µM] | % inhibition of CaE at 20 µM [4] [%] | IC50 [4] [µM] | inhibition at 20 µM [4] [%] | radical-scavenging activity, ORAC-FL method [1] | radical-scavenging activity, ABTS method [2] |
| --- | --- | --- | --- | --- | --- | --- | --- | --- | --- |
| CN1CCc2c(c3ccccc3n2CCC(=O)N2c3ccc(N(C)C)cc3Sc3cc(N(C)C)ccc32)C1.Cl.Cl.Cl [Compound 1] | 7.28 ± 0.65 | 0.63 ± 0.045 | 35.4 ± 3.4 | 1.45 ± 0.29 | 21.5 ± 2.3 | > 20 | – | – | – |
| CCN1CCc2c(c3ccccc3n2CCC(=O)N2c3ccc(N(C)C)cc3Sc3cc(N(C)C)ccc32)C1.Cl.Cl.Cl [Compound 2] | 8.80 ± 0.96 | 1.03 ± 0.07 | 19.1 ± 1.52 | 0.68 ± 0.07 | 18.1 ± 1.7 | > 20 | – | – | – |
| Cc1ccc2c(c1)c1c(n2CCC(=O)N2c3ccc(N(C)C)cc3Sc3cc(N(C)C)ccc32)CCN(C)C1 [Compound 3] | 7.44 ± 0.74 | 0.79 ± 0.06 | 27.5 ± 1.64 | 2.29 ± 0.47 | – | > 20 | 26 | – | – |
| CCN1CCc2c(c3cc(C)ccc3n2CCC(=O)N2c3ccc(N(C)C)cc3Sc3cc(N(C)C)ccc32)C1.Cl.Cl.Cl [Compound 4] | 9.82 ± 0.79 | 0.99 ± 0.08 | 20.5 ± 2.05 | 0.71 ± 0.01 | 15.7 ± 1.8 | > 20 | – | – | – |
| CCCN1CCc2c(c3cc(C)ccc3n2CCC(=O)N2c3ccc(N(C)C)cc3Sc3cc(N(C)C)ccc32)C1.Cl.Cl.Cl [Compound 5] | 7.70 ± 0.84 | 0.99 ± 0.05 | 19.6 ± 1.82 | 0.75 ± 0.01 | 9.8 ± 1.4 | > 20 | – | – | – |
| Cc1ccc2c(c1)c1c(n2CCC(=O)N2c3ccc(N(C)C)cc3Sc3cc(N(C)C)ccc32)CCN(C(C)C)C1.Cl.Cl.Cl [Compound 6] | 7.12 ± 0.64 | 0.96 ± 0.07 | 21.2 ± 1.75 | 0.58 ± 0.03 | 19.5 ± 1.8 | > 20 | – | – | – |
| CN1CCc2c(c3cc(F)ccc3n2CCC(=O)N2c3ccc(N(C)C)cc3Sc3cc(N(C)C)ccc32)C1 [Compound 7] | 10.93 ± 0.98 | 1.08 ± 0.08 | 19 ± 2.28 | 3.2 ± 0.4 | – | > 20 | 13.8 | – | – |
| CN(C)c1ccc2nc3ccc(=[N+](C)C)cc-3sc2c1 [MB, methylene blue, reference compound] | – | – | – | 4 ± 0.6 | – | > 20 | 12.3 | not detectable | not detectable |
| CN(C)c1ccc2c(c1)Sc1cc(N(C)C)ccc1N2 [MBH2, leucomethylene blue, reference compound] | – | – | – | 1.58 ± 0.49 | – | > 20 | 17.2 | not detectable | not detectable |
